Experimental data as given in ChEMBL document CHEMBL5352448, “Novel tryptanthrin derivatives with benzenesulfonamide substituents: Design, synthesis, and anti-inflammatory evaluation” (Eur J Med Chem, 2023).
The source made the active and inactive calls. The calls are words filed in the database; no cut-off is given here.

Tests used:
[1] = system: RAW264.7; test: Cytotoxicity against mouse RAW264.7 cells assessed as reduction in cell viability at 40 uM incubated for 24 hrs by MTT assay; type: toxicity, cell-based; conditions: raw264.7, 24 h
[2] = system: RAW264.7; test: Antiinflammatory activity in mouse RAW264.7 cells assessed as inhibition of LPS-induced NO production at 20 uM preincubated with compound for 1 hrs followed by LPS-stimulation and measured after 24 hrs by griess reagent based assay relative to control; type: functional
[3] = system: RAW264.7; test: Antiinflammatory activity in mouse RAW264.7 cells assessed as inhibition of LPS-induced NO production preincubated with compound for 1 hrs followed by LPS-stimulation and measured after 24 hrs by griess reagent based assay; type: functional, cell-based
[4] = target: Mitogen-activated protein kinase 14 (Mus musculus) (UniProt P47811); test: Thermal stabilization of P38alpha in LPS-induced mouse RAW264.7 cells at 30 uM preincubated with compound for 1 hrs followed by LPS stimulation and measured after 24 hrs at 50 to 55 degreeC by cellular thermal shift assay; type: cell-based
[5] = system: Rattus norvegicus; test: Antiarthritic activity against adjuvant arthritis-induced Sprague-Dawley rat model assessed as alleviation of synovial cell proliferation at 10 to 30 mg/kg, IG pre-administered with FCA for 10 days followed by compound administration once daily for 14 days by H&E staining microscopic analysis; type: functional, organism-based; conditions: dose 10-30 mg/kg, time 14.0 day
[6] = system: Rattus norvegicus; test: Antiarthritic activity against adjuvant arthritis-induced Sprague-Dawley rat model assessed as decrease in IL-1beta level in serum pre-administered with FCA for 10 days followed by intragastric administration of compound once daily for 14 days by ELISA analysis; type: functional, organism-based; conditions: dose 10-30 mg/kg, route ig, time 14.0 day
[7] = target: T1, MAP kinase p38 (Mus musculus) (UniProt P47811+O08911+Q9WUI1+Q9Z1B7); test: Inhibition of LPS-induced p38 MAPK signaling activation in mouse RAW264.7 cells assessed as reduction of MK2 phosphorylation preincubated with compound for 1 hrs followed by LPS stimulation and measured after 24 hrs by Western blot analysis; type: cell-based; conditions: dose 1-5 µM
[8] = system: Rattus norvegicus; test: Antiarthritic activity against adjuvant arthritis-induced Sprague-Dawley rat model assessed as decrease in TNF-alpha level in serum pre-administered with FCA for 10 days followed by intragastric administration of compound once daily for 14 days by ELISA analysis; type: functional, organism-based; conditions: dose 10-30 mg/kg, route ig, time 14.0 day
[9] = system: RAW264.7; test: Antiinflammatory activity in mouse RAW264.7 cells assessed as suppression of LPS-induced iNOS expression preincubated with compound for 1 hrs followed by LPS-stimulation and measured after 24 hrs by Western blot analysis; type: functional, cell-based; conditions: dose 1-5 µM
[10] = target: T1, MAP kinase p38 (Mus musculus); test: Inhibition of LPS-induced p38 MAPK signaling activation in mouse RAW264.7 cells assessed as inhibition of p38 alpha phosphorylation preincubated with compound for 1 hrs followed by LPS stimulation and measured after 24 hrs by Western blot analysis; type: cell-based; conditions: dose 1-5 µM
[11] = system: RAW264.7; test: Antiinflammatory activity in mouse RAW264.7 cells assessed as inhibition of LPS-induced TNF-alpha production preincubated with compound for 1 hrs followed by LPS-stimulation and measured after 24 hrs by ELISA analysis; type: functional, cell-based
[12] = system: RAW264.7; test: Antiinflammatory activity in mouse RAW264.7 cells assessed as inhibition of LPS-induced IL-1beta production preincubated with compound for 1 hrs followed by LPS-stimulation and measured after 24 hrs by ELISA analysis; type: functional, cell-based
[13] = system: Rattus norvegicus; test: Antiarthritic activity against adjuvant arthritis-induced Sprague-Dawley rat model assessed as reduction in body weight loss at 10 to 30 mg/kg, IG pre-administered with FCA for 10 days followed by compound administration once daily for 14 days and measured every 4 days; type: functional, organism-based; conditions: dose 10-30 mg/kg, time 14.0 day
[14] = system: Rattus norvegicus; test: Antiarthritic activity against adjuvant arthritis-induced Sprague-Dawley rat model assessed as improvement of arthritic index at 10 to 30 mg/kg, IG pre-administered with FCA for 10 days followed by compound administration once daily for 14 days and measured every 4 days; type: functional, organism-based; conditions: dose 10-30 mg/kg, time 14.0 day
[15] = system: Rattus norvegicus; test: Antiarthritic activity against adjuvant arthritis-induced Sprague-Dawley rat model assessed as alleviation of inflammatory cell infiltration at 10 to 30 mg/kg, IG pre-administered with FCA for 10 days followed by compound administration once daily for 14 days by H&E staining microscopic analysis; type: functional, organism-based; conditions: dose 10-30 mg/kg, time 14.0 day
[16] = system: RAW264.7; test: Antiinflammatory activity in mouse RAW264.7 cells assessed as suppression of LPS-induced COX-2 expression preincubated with compound for 1 hrs followed by LPS-stimulation and measured after 24 hrs by Western blot analysis; type: functional, cell-based; conditions: dose 1-5 µM
[17] = system: Rattus norvegicus; test: Antiarthritic activity against adjuvant arthritis-induced Sprague-Dawley rat model assessed as decrease in paw swelling pre-administered with FCA for 10 days followed by intragastric administration of compound once daily for 14 days and measured every 4 days; type: functional, organism-based; conditions: dose 10-30 mg/kg, route ig, time 14.0 day

Chain of Mitogen-activated protein kinase 14 (Mus musculus) (P47811 whole entry): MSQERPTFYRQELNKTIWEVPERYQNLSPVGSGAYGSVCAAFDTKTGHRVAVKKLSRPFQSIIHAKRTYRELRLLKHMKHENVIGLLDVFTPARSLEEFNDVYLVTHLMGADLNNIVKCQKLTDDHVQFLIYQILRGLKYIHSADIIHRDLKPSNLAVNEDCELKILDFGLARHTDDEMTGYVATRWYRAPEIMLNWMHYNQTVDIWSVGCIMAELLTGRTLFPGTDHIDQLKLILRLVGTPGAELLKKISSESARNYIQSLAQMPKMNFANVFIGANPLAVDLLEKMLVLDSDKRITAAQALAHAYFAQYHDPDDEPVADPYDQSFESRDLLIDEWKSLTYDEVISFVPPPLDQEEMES

Structure (SMILES)	Activity [1]	inhibition at 20 µM [2] [%]	further results
O=C1c2cc(NS(=O)(=O)c3cccc(F)c3)ccc2-n2c1nc1ccccc1c2=O	Non-Toxic	37.5	–
O=C1c2ccccc2-n2c1nc1ccc(NS(=O)(=O)c3ccccc3C(F)(F)F)cc1c2=O	Non-Toxic	74.9	–
COc1ccc(S(=O)(=O)Nc2ccc3nc4n(c(=O)c3c2)-c2ccccc2C4=O)cc1OC	Non-Toxic	73	–
COc1ccc(S(=O)(=O)Nc2ccc3c(c2)C(=O)c2nc4ccccc4c(=O)n2-3)cc1	Non-Toxic	56.4	–
CC(C)c1cc(C(C)C)c(S(=O)(=O)Nc2ccc3c(c2)C(=O)c2nc4ccccc4c(=O)n2-3)c(C(C)C)c1	Non-Toxic	31.6	–
O=C1c2cc(NS(=O)(=O)c3ccc(F)cc3)ccc2-n2c1nc1ccccc1c2=O	Non-Toxic	42.5	–
O=C1c2ccccc2-n2c1nc1ccc(NS(=O)(=O)c3ccccc3F)cc1c2=O	Non-Toxic	88.2	IC50 [3]: 2.72 µM
O=C1c2cc(NS(=O)(=O)c3ccccc3C(F)(F)F)ccc2-n2c1nc1ccccc1c2=O	Non-Toxic	54.3	–
CC(C)(C)c1ccc(S(=O)(=O)Nc2ccc3nc4n(c(=O)c3c2)-c2ccccc2C4=O)cc1	Non-Toxic	58.2	–
COc1ccc(S(=O)(=O)Nc2ccc3nc4n(c(=O)c3c2)-c2ccccc2C4=O)c(OC)c1	Non-Toxic	78	–
O=C1c2cc(NS(=O)(=O)c3ccc(OC(F)(F)F)cc3)ccc2-n2c1nc1ccccc1c2=O	Non-Toxic	42.9	–
COc1ccc(S(=O)(=O)Nc2ccc3c(c2)C(=O)c2nc4ccccc4c(=O)n2-3)cc1OC	Non-Toxic	57.2	–
CC(=O)Nc1ccc(S(=O)(=O)Nc2ccc3nc4n(c(=O)c3c2)-c2ccccc2C4=O)cc1	Non-Toxic	47.2	–
COc1ccc(S(=O)(=O)Nc2ccc3nc4n(c(=O)c3c2)-c2ccccc2C4=O)cc1	Non-Toxic	94	Activity [4]: Active; Activity [5]: Active; Activity [6]: Dose-Dependent Effect; IC50 [3]: 1.25 µM; inhibition [7]: Dose-Dependent Effect; Activity [8]: Dose-Dependent Effect; Activity [9]: Dose-Dependent Effect; inhibition [10]: Dose-Dependent Effect; Activity [11]: Dose-Dependent Effect; IC50 [11]: 11.5 µM; Activity [12]: Dose-Dependent Effect; IC50 [12]: 8.48 µM; Activity [13]: Active; Activity [14]: Active; Activity [15]: Active; Activity [16]: Dose-Dependent Effect; Activity [17]: Dose-Dependent Effect
O=C1c2cc(NS(=O)(=O)c3ccccc3)ccc2-n2c1nc1ccccc1c2=O	Non-Toxic	28.1	–
O=C1c2ccccc2-n2c1nc1ccc(NS(=O)(=O)c3ccc(F)cc3)cc1c2=O	Non-Toxic	85.4	IC50 [3]: 2.73 µM
O=C1c2cc(NS(=O)(=O)c3ccc(Br)cc3)ccc2-n2c1nc1ccccc1c2=O	Non-Toxic	18.8	–
O=C1c2cc(NS(=O)(=O)c3ccccc3F)ccc2-n2c1nc1ccccc1c2=O	Non-Toxic	49.1	–

Structure (SMILES)	Activity [1]	inhibition at 20 µM [2] [%]	further results
O=C1c2ccccc2-n2c1nc1ccc(NS(=O)(=O)c3cccc(F)c3)cc1c2=O	Non-Toxic	64.4	–
Nc1ccc2c(c1)C(=O)c1nc3ccccc3c(=O)n1-2	–	26.7	–
CC(C)(C)c1ccc(S(=O)(=O)Nc2ccc3c(c2)C(=O)c2nc4ccccc4c(=O)n2-3)cc1	Non-Toxic	20.6	–
O=C1c2ccccc2-n2c1nc1ccc(NS(=O)(=O)c3ccc(OC(F)(F)F)cc3)cc1c2=O	Non-Toxic	63.6	–
O=C1c2ccccc2-n2c1nc1ccc(NS(=O)(=O)c3ccccc3OC(F)(F)F)cc1c2=O	Non-Toxic	82.1	IC50 [3]: 3.88 µM
O=C1c2ccccc2-n2c1nc1ccc(NS(=O)(=O)c3ccc(Br)cc3)cc1c2=O	Non-Toxic	34.2	–
O=C1c2ccccc2-n2c1nc1ccc(NS(=O)(=O)c3c(Cl)cccc3Cl)cc1c2=O	Non-Toxic	64.4	–
CC(=O)Nc1ccc(S(=O)(=O)Nc2ccc3c(c2)C(=O)c2nc4ccccc4c(=O)n2-3)cc1	Non-Toxic	17.3	–
COc1ccc(S(=O)(=O)Nc2ccc3c(c2)C(=O)c2nc4ccccc4c(=O)n2-3)c(OC)c1	Non-Toxic	55.1	–
COc1ccc2c(c1)c(CC(=O)O)c(C)n2C(=O)c1ccc(Cl)cc1 [INDOMETHACIN]	Non-Toxic	32.1	–
O=C1c2cc(NS(=O)(=O)c3ccccc3OC(F)(F)F)ccc2-n2c1nc1ccccc1c2=O	Non-Toxic	46.2	–
O=C1c2ccccc2-n2c1nc1ccc(NS(=O)(=O)c3ccccc3)cc1c2=O	Non-Toxic	14.5	–
O=C1c2cc(NS(=O)(=O)c3c(Cl)cccc3Cl)ccc2-n2c1nc1ccccc1c2=O	Non-Toxic	38.4	–
Cc1ccc(S(=O)(=O)Nc2ccc3nc4n(c(=O)c3c2)-c2ccccc2C4=O)cc1	Non-Toxic	90.2	IC50 [3]: 2.89 µM
Cc1ccc(S(=O)(=O)Nc2ccc3c(c2)C(=O)c2nc4ccccc4c(=O)n2-3)cc1	Non-Toxic	55.8	–
Nc1ccc2nc3n(c(=O)c2c1)-c1ccccc1C3=O	–	38.1	–
CC(C)c1cc(C(C)C)c(S(=O)(=O)Nc2ccc3nc4n(c(=O)c3c2)-c2ccccc2C4=O)c(C(C)C)c1	Non-Toxic	81.2	IC50 [3]: 4.21 µM
O=C1c2ccccc2-n2c1nc1ccccc1c2=O [TRYPTANTHRIN]	–	31.3	–
